“Also recorded” adds a separate entry of the source. Peptide text beside a SMILES is read from it.
Key:
[1] = tested on: C. elegans CL2120; assay: Paralysis assay in C. elegans CL2120; assay type: in vivo; details: for Mean fraction of paralyzed: Aβ42 or isoD7-Aβ42 40 μM, HAEE 4 mM, 25°C, mean ± SD of 3 experiments
Method: (§1) C. elegans CL2120 (dvIs14 [(pCL12) unc-54::beta 1-42 +(pCL26) mtl-2::GFP]) and C. elegans CL2122 (dvIs15 [(pPD30.38) unc-54(vector) + (pCL26) mtl-2::GFP]) strains were obtained from the Caenorhabditis Genetics Center. The worms were handled according to standard methods without FUDR [18]. E. coli OP50 bacteria were grown overnight in Luria-Bertani broth and 50µl were spread atop NGM or NGMZn plates. NGMZn has 20μM ZnSO4. Seeded plates were incubated at 30°C for ~16 hours and then for 1-2 hours at 15 or 25°C before worms were transferred. Lifespan and paralysis experiments (see below) were performed at 25°C for enhanced expression of Aβ. This temperature is standard when studying the effects of Aβ on C. elegans CL2120 strain [19].
Then, nematodes were transferred to Petri plates with NGM or NGMZn and OP-50, placed in a temperature-controlled incubator at 25°C. On the next day, worms were transferred onto similar media with a bacterial substrate and paralyzed nematodes were counted at equal time intervals. […] For the paralysis experiments, we chose the days where we could clearly distinguish between paralysis and mortality. This conformed to the third and fourth days of their adult life. While at least three repeated trials were conducted, each experiment was performed using at least 100 worms. Details regarding repeated experiments and amounts of animals used for experiments are summarized in Supplementary Table 2. Mean fraction of paralyzed worms was compared between groups with two-way ANOVA, accounting for age and treatment. Post-hoc analysis was performed with the Tukey test. Statistical analysis was performed with GraphPad Prism 9.1 software.

[2] = tested on: C. elegans CL2120; assay: Lifespan analysis, C. elegans CL2120; assay type: in vivo; details: for Mean survival: Aβ42 or isoD7-Aβ42 40 μM, HAEE 4 mM; for Increase/decrease in lifespan: vs control of same repeat
Method: as §1
Nematodes were purified from unwanted microflora by the alkaline hypochlorite method, grown to the L4 stage at 15°C on NGM plates with bacterial lawn. […] Further, all contents were transferred to Petri plates with NGM or NGMZn with OP50 and placed in a temperature-controlled incubator at 25°C. Next day, worms were transferred onto similar media with a bacterial substrate and the lifespan was determined at 25°C (Supplementary Tables 3, 4).
Lifespans were monitored at 25°C as described previously. All experiments were repeated at least three times and ≈130 worms were used for each experiment. Details regarding repeated experiments and amounts of animals used for experiments are summarized in Supplementary Tables 3, 4. In all cases, stage L4 worms were used at t = 0 for lifespan analyses and worms were transferred every other day to new agar plates. […] Escaped animals or animals with internal hatching were not included in lifespan calculation. Data was analyzed and Boltzmann sigmoid survival curves generated using the SciDAVis statistical analysis software package. Mean lifespans were compared in Microsoft Excel using the Student t test, applying one-tailed distribution and two-sample equal variance. All lifespan plots represent the composites of all independent experiments tabulated in Supplementary Tables 3, 4. Mean percentage change ±SD of lifespan after treatment, relative to untreated control are indicated in each graph in the same color as the curve.

[3] = tested on: isoD7-Aβ16; assay: NMR titration, isoD7-Aβ16 with HAEE and Zn2+; assay type: binding; details: NMR
Method: Peptides Aβ16, H6R-Aβ16 and isoD7-Aβ16 at the concentration of 0.2 - 8mM were dissolved in 10-20 mM bis-Tris-d19 (2,2-Bis(hydroxymethyl)-2,2′,2"-nitrilotrie-thanol-d19 with 98% ^2D enrichment) buffer solution (pH 6.8). Sodium salt of 3-(trimethylsilyl) propionic-2,2,3,3-d4 acid (DSS) at a concentration of 10-20 μM was added as the standard. NMR spectra were measured at 278 K in 90% H2O/10% D2O with Bruker AVANCE 600 MHz spectrometer equipped with triple resonance (^1H, ^13C and ^15N) pulsed field z gradient probe. 1D NMR spectra were processed and analyzed using the Mnova software (Mestrelab Research, Spain). In order to monitor peptide-peptide interactions NMR titration experiments were carried out. […] 1D spectra were recorded for each titration point.

[4] = CL2120, NGM (no Zn), replicate 1
[5] = CL2120, NGM (no Zn), replicate 2
[6] = CL2120, NGM (no Zn), replicate 3

With CC(=O)N[C@@H](Cc1c[nH]cn1)C(=O)N[C@@H](C)C(=O)N[C@@H](CCC(=O)O)C(=O)N[C@@H](CCC(=O)O)C(N)=O [HAEE, Ac-HAEE-NH2] (Ac-HAEE-NH2) the “Mean fraction of paralyzed” value ([1]; A3 (3 days old), NGM (no Zn)) was 5.5±0.35%, the Fraction of paralyzed ([1]; A3 (3 days old), NGM (no Zn), replicate 1) was 5.5% and the Fraction of paralyzed ([1]; A3 (3 days old), NGM (no Zn), replicate 2) was 5.2%. The Fraction of paralyzed ([1]; A3 (3 days old), NGM (no Zn), replicate 3) was 5.9%, the “Mean fraction of paralyzed” value ([1]; A4 (4 days old), NGM (no Zn)) was 10.5±0.55% and the Fraction of paralyzed ([1]; A4 (4 days old), NGM (no Zn), replicate 1) was 9.9%. The Fraction of paralyzed ([1]; A4 (4 days old), NGM (no Zn), replicate 2) was 10.9%, the “Mean fraction of paralyzed” value ([1]; A4 (4 days old), NGMZn (ZnSO4 20 μM)) was 9.5±0.65% and the Fraction of paralyzed ([1]; A4 (4 days old), NGMZn, replicate 1) was 10.2%. For the same compound, the Fraction of paralyzed ([1]; A4 (4 days old), NGMZn, replicate 2) was 9.5%, the Fraction of paralyzed ([1]; A4 (4 days old), NGMZn, replicate 3) was 8.9% and the “Effect of HAEE on isoD7-Aβ42/Zn2+-accelerated paralysis” value ([1]; HAEE 4 mM + isoD7-Aβ42 40 μM, NGMZn) was “suppresses this effect”. The “Effect of HAEE itself on lifespan” value ([2]; CL2120, HAEE 4 mM) was “no effect”, the Mean survival ([2]; CL2120, NGM (no Zn), 25°C, mean ± SD of 3 experiments) was 8.83 ± 0.31 days and the 50% survival [2, 4] was 8.5 days. For the same compound, the 50% survival [2, 5] was 8.9 days, the 50% survival [2, 6] was 9.1 days and the “Mean increase/decrease in lifespan” value ([2]; CL2120, NGM (no Zn), vs control NGM, mean ± SD of 3 experiments) was 1.53±0.63%. The Increase/decrease in lifespan [2, 4] was 1.19%, the Increase/decrease in lifespan [2, 5] was 1.14% and the Increase/decrease in lifespan [2, 6] was 2.25%. The “Effect on lifespan” value ([2]; CL2120, NGM, without Zn2+, 25°C) was “do not affect”, the Mean survival ([2]; CL2120, NGMZn (ZnSO4 20 μM), 25°C, mean ± SD of 3 (isoD7-Aβ42: 5) experiments) was 9.2 ± 0.7 days and the “Effect of HAEE on lifespan shortened by isoD7-Aβ42 + Zn2+” value ([2]; CL2120, NGMZn, HAEE 4 mM + isoD7-Aβ42 40 μM) was “removes the negative effect; also recorded: completely restored the shortened lifespan”. For the same compound, the 50% survival ([2]; CL2120, NGMZn, replicate 1) was 9.3 days, the 50% survival ([2]; CL2120, NGMZn, replicate 2) was 9 days and the 50% survival ([2]; CL2120, NGMZn, replicate 3) was 9.3 days. For the same compound, the “Mean increase/decrease in lifespan” value ([2]; CL2120, NGMZn, vs control NGMZn, mean ± SD of 3 (isoD7-Aβ42: 5) experiments) was 1.85 ±0.66%, the Increase/decrease in lifespan ([2]; CL2120, NGMZn, replicate 1) was 1.09% and the Increase/decrease in lifespan ([2]; CL2120, NGMZn, replicate 2) was 2.27%. For the same compound, the Increase/decrease in lifespan ([2]; CL2120, NGMZn, replicate 3) was 2.20%, the “Zinc-dependent dimerization of isoD7-Aβ16” value ([3]; 278 K, pH 6.8, Zn2+) was “inhibits” and the “Effect of Zn2+ on isoD7-Aβ16 NMR signal in the presence of HAEE” value ([3]; pH 6.8, 278 K, Zn2+ plus HAEE) was “did not diminish the isoD7-Aβ16 signal”.

Reference: article PMC10017155 (Aging and Disease, 2023)
